Results reported in PMC5796017, “Enantiomeric Effect of D-Amino Acid Substitution on the Mechanism of Action of α-Helical Membrane-Active Peptides” (International Journal of Molecular Sciences, 2017).
≈ marks a conversion by molar mass, not a printed value.

Tests used:
HeLa cells = test: AFM imaging; assay type: cell-based, human; conditions: treatment 5 min, DMEM, AAC mode
Procedure: (§1) The mechanism of the interaction of the peptides with the different kinds of membranes was further analyzed by AFM. E. coli and HeLa cells were imaged to observe the morphologic change of cell membranes with, and without, treatment with V13K. […] Similarly, the surface of untreated cells fixed with, or without, 4% paraformaldehyde were intact and the membrane surface appeared quite smooth (Figure 4E–H).
(§2) The AFM imaging of E. coli ATCC25922 and HeLa cells before, and after, incubation with V13K were performed using an AFM 5500 (Agilent Technologies, Chandler, AZ, USA). The AFM imaging of E. coli was used on the contact mode and the cantilever was used as the B-tip (DNP, B-tip, Bruker AFM probes, California, CA, USA). The AFM imaging of HeLa was used on the AAC mode and the cantilever was used as the D-tip (DNP, D-tip, Bruker AFM probes, Camarillo, California, CA, USA). A single bacterial colony was picked and cultured in Mueller–Hinton (MH) medium for 18–20 h. […] The E. coli and peptide-treated bacteria samples (after treatment for 30 min) were applied onto mica and imaged in air using the contact mode and recorded with 512 × 512 pixels. The images of HeLa cells and peptide-treated HeLa cells (after treatment for 5 min) were obtained in Dulbecco’s Modified Eagle’s medium (DMEM) using the Acoustic AC (AAC) mode and recorded with 512 × 512 pixels. […]

S. aureus ATCC25923 = test: Antimicrobial activity, microtiter dilution MIC; assay type: cell-based, Staphylococcus aureus; conditions: G+; MH medium, 5 × 10^5 CFU/mL, 37 °C, 24 h, triplicate
Method in brief: (§3)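 Broth microdilution in Mueller–Hinton medium, inoculum 5 × 10^5 CFU/mL, serially diluted peptide, 24 h at 37 °C. MIC taken as lowest peptide concentration preventing growth; triplicate runs.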

E. coli ATCC25922 = test: AFM imaging; assay type: cell-based, Escherichia coli; conditions: treatment 30 min, imaged in air, contact mode
Procedure: as §1, §2

MIA PaCa-2 = test: MTT cell viability assay; assay type: cell-based, human; conditions: MIA PaCa-2, MTT, 24 h; mean ± SEM of three independent determinations
Method in brief: (§4)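 Cells seeded at 5000 per well in DMEM/10% FBS, exposed to peptides for 24 h at 37 °C. Viability by MTT, formazan dissolved in DMSO, absorbance at 492 nm. IC50 is the concentration giving 50% viability loss; triplicate.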

BxPC-3 = test: MTT cell viability assay; assay type: cell-based, human; conditions: BxPC-3, MTT, 24 h; mean ± SEM of three independent determinations
Method in brief: as §4

HPAC = test: MTT cell viability assay; assay type: cell-based, human; conditions: 24 h, mean ± SEM of three independent determinations
Method in brief: as §4

HeLa = test: MTT cell viability assay; assay type: cell-based, human; conditions: 24 h, mean ± SEM of three independent determinations
Method in brief: as §4

S. epidermidis ATCC12228 = test: Antimicrobial activity, microtiter dilution MIC; assay type: cell-based, Staphylococcus epidermidis; conditions: G+; MH medium, 5 × 10^5 CFU/mL, 37 °C, 24 h, triplicate
Method in brief: as §3

P. aeruginosa ATCC27853 = test: Antimicrobial activity, microtiter dilution MIC; assay type: cell-based, Pseudomonas aeruginosa; conditions: G−; MH medium, 5 × 10^5 CFU/mL, 37 °C, 24 h, triplicate
Method in brief: as §3

Compound: CC[C@H](C)[C@H](NC(=O)[C@H](C)NC(=O)[C@H](CCCCN)NC(=O)[C@H](CC(C)C)NC(=O)[C@H](C)NC(=O)[C@@H](NC(=O)[C@H](Cc1cnc[nH]1)NC(=O)[C@H](CC(C)C)NC(=O)[C@@H](NC(=O)[C@@H](NC(=O)[C@H](CCCCN)NC(=O)[C@H](CCCCN)NC(=O)[C@H](C)NC(=O)[C@H](CO)NC(=O)[C@H](CCCCN)NC(=O)[C@H](Cc1ccccc1)NC(=O)[C@@H](NC(=O)[C@H](CCCCN)NC(=O)[C@H](CC(C)C)NC(=O)[C@H](Cc1ccccc1)NC(=O)[C@H](CO)NC(=O)[C@H](CCCCN)NC(=O)[C@H](Cc1c[nH]c2ccccc12)NC(=O)[C@H](CCCCN)NC(C)=O)[C@@H](C)O)[C@@H](C)O)C(C)C)[C@@H](C)O)C(=O)N[C@@H](CO)C(=O)N[C@@H](CO)C(N)=O [Peptide V13K]
- Morphology of HeLa cell membrane by AFM (HeLa cells): pores and cavities were visible on the surface of the cells
- MIC (S. aureus ATCC25923): 32 µM (≈ 95.7 µg/mL)
- Morphology of bacterial membrane by AFM (E. coli ATCC25922): obvious damage to the morphology of bacterial membrane
- IC50 (MIA PaCa-2): 24.8 ± 0.6 µM
- IC50 (BxPC-3): 12.5 ± 1.2 µM
- IC50 (HPAC): 7.6 ± 4 µM
- IC50 (HeLa): 16 ± 0.5 µM
- MIC (S. epidermidis ATCC12228): 4 µM (≈ 12 µg/mL)
- MIC (P. aeruginosa ATCC27853): 8 µM (≈ 23.9 µg/mL)
